# From US12491183B2, “Compositions and methods of using nintedanib for treating ocular diseases with abnormal neovascularization” (ADS Therapeutics LLC, priority 2016, dated 2025)
# “Also recorded” adds a separate entry of the source.
# Columns and labels:
# [1] = system: suture-induced neovascularization in the rabbit cornea; experiment: Rabbit cornea suture model of neovascularization; assay type: in vivo
# Protocol: Topical compositions comprising 0.2% or 0.05% nintedanib in 10% 2-hydroxypropyl beta cyclodextrin in phosphate buffer solution, pH 7.4 were prepared. Thirty female Zealand White rabbits were used to perform the study. Briefly, five sutures were placed in the upper cornea of the right eye of each animal on Day 1 to induce neovascularization. The animals were treated in both eyes with either drug, vehicle or saline as described in Table 1. [table] During the study, the animals were closely observed for various ocular indications as well as general physical conditions including body weight. Ocular images were taken on days 7, 10, 12, 14, 21, 28 for analysis of hyperemia. NIH ImageJ® software was used to analyze the ocular images. Each image was opened in ImageJ®, the scale was calibrated using the ruler in the photograph and the neovascularized area on the cornea near the suture was selected by the selection tool. The area in mm^2 was calculated by measurement tool in the software, recorded in excel and the image was captured and saved. […] The results were plotted as histograms of average with standard deviation for easy comparison.
# [2] = system: corneal graft rejection (C57BL/6 cornea transplanted onto BALB/c mice); experiment: Mouse corneal graft rejection model; assay type: in vivo; conditions: nintedanib 0.2% solution TID for 8 weeks vs vehicle solution
# Text: In this example, cornea of C57BL/6 mice would be transplanted onto BALB/c mice cornea as described (Sonoda et al. Invest Ophthalmol Vis Sci. 1995 February; 36(2):427-34; Invest Ophthalmol Vis Sci. 2000 March; 41(3):790-8; Yamagami et al. Invest Ophthalmol Vis Sci. 2001 May; 42(6): 1293-8). The suture would be removed on day 7 after transplant. The mice would be divided into two groups. Group 1 would be treated with the nintedanib 0.2% solution and group 2 with the vehicle solution. Treatment would start immediately after transplant, TID for 8 weeks. The corneal opacity and graft rejection will be assessed weekly for 8 weeks as described.
smiles,measurement,setting,value
"COC(=O)c1ccc2c(c1)NC(=O)/C2=C(\Nc1ccc(N(C)C(=O)CN2CCN(C)CC2)cc1)c1ccccc1 [nintedanib, Methyl (3Z)-3-{[(4-{methyl[(4-methylpiperazin-1-yl)acetyl]amino}phenyl)amino] (phenyl)methylidene}-2-oxo-2,3-dihydro-1H-indole-6-carboxylate]",efficacy of TID dosing compared with BID dosing,"[1]; rabbit cornea suture model, topical ocular, TID vs BID",higher efficacy
same,efficacy of 0.2% nintedanib compared with 0.05% nintedanib,"[1]; rabbit cornea suture model, topical ocular, higher dose 0.2% vs 0.05%",better efficacy
same,effect on suture-induced corneal neovascularization (area of cornea neovascularization),"[1]; rabbit, topical ocular 0.2% or 0.05% solution BID or TID days 8 to 15, vs vehicle, day 12 and day 14 after suture",reduced cornea neovascularization; also recorded: marked inhibitory effect; also recorded: strongly inhibited corneal neovascularization
same,survival of the graft (rejection rate),[2],significantly increased survival of the graft
